This passage reports IC50 results from patent publication US20240409585A1, “MACROCYCLIC IMMUNOMODULATORS” (priority 2021, published 2024).

Numbered stars: 1 amine (or outer) side, 2 acyl side, 3 side chain; on linkers, the order of the positions; unused ones are H or OH. Bridge positions count the residues as written; N and C are the ends. Square brackets hold non-standard residues; d marks the D form. Peptide text beside a SMILES is read from it. * marks the point of attachment. ξ: configuration not given here. Ala(piperidin-4-yl) = O=C([C@H](CC1CCN([*:3])CC1)N[*:1])[*:2]; X36 = O=C([C@H](Cc1ccc(-c2ccsc2)cc1)N[*:1])[*:2]; Phe(4-COOH) = N[C@@H](Cc1ccc(C(=O)O)cc1)C(=O)O; X23 = O=C([C@H](Cc1cc2ccccc2cn1)N[*:1])[*:2]; Bip = N[C@@H](Cc1ccc(-c2ccccc2)cc1)C(=O)O; Phe(3-CN) = N#Cc1cccc(C[C@H](N)C(=O)O)c1; Phe(3-Me) = Cc1cccc(C[C@H](N)C(=O)O)c1; Bta = N[C@@H](Cc1csc2ccccc12)C(=O)O; Cha = N[C@@H](CC1CCCCC1)C(=O)O; Cit = NC(=O)NCCC[C@H](N)C(=O)O; Ile(3ξ) = CCC(C)[C@H](N)C(=O)O; Thr(3ξ) = CC(O)[C@H](N)C(=O)O; Carboxymethyl = O=C(O)C*; NMeA = CN[C@@H](C)C(=O)O; Dab = NCC[C@H](N)C(=O)O; ξN = NC(=O)CC(N)C(=O)O

For the test, the target named is T1, PE-labeled human PD-L1-Ig binding to Jurkat cell line over-expressing human PD-1 (Jurkat-PD-1) (Homo sapiens, UniProt Q15116).
T1 construct: expressed in transfected cells; host or cells: Jurkat
T1 sequence (Q15116 25-288): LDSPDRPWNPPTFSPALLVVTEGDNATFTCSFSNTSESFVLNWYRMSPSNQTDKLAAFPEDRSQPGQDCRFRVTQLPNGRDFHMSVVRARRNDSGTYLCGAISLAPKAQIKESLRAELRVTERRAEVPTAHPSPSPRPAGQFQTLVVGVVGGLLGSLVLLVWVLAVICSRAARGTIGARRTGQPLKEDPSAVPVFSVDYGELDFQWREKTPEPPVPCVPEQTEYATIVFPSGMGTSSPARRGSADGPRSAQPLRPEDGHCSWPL
Put plainly: Jurkat-PD-1 Cell Binding High-Content Screening Assay (CBA): Method 1. Conditions: Jurkat-hPD-1 cells, PE-labeled PD-L1-Ig 20 nM final; read-out: Jurkat HPDL1 PD1 IC50 (uM) (Method 1).
Regarding `CC[C@H](C)[C@@H]1NC(=O)[C@H](Cc2ccc(-c3ccccc3)cc2)NC(=O)[C@H](C(C)C)NC(=O)[C@H](Cc2c[nH]c3ccccc23)NC(=O)[C@H](CC(=O)O)NC(=O)[C@H](Cc2ccc(O)cc2)NC(=O)[C@H](CC(N)=O)NC(=O)CSC[C@@H](C(=O)N[C@@H](C)C(N)=O)NC(=O)[C@H](CO)NC(=O)[C@H](C(C)C)NC(=O)[C@H](CC(C)C)NC(=O)[C@H](CCCCN)NC(=O)[C@@H](CC(C)C)NC(=O)[C@H](C)N(C)C1=O` [Compound 1480] ({CH2CO}-NYDWV[Bip]I[NMeA][dL]KLVSCA-NH2; thioether N-14), the IC50 (as a rule, the concentration needed to halve the response being measured) amounted to 0.04 µM. Under `Cc1cccc(C[C@@H]2NC(=O)[C@H](CC(=O)O)NC(=O)[C@H](Cc3ccc(O)cc3)NC(=O)[C@H](CC(N)=O)NC(=O)CSC[C@@H](C(=O)N[C@@H](C)C(N)=O)NC(=O)[C@H]([C@@H](C)O)NC(=O)[C@H](C(C)C)NC(=O)[C@H](CC(C)C)NC(=O)[C@H](CCCNC(=N)N)NC(=O)[C@@H](CC(C)C)NC(=O)[C@H](C)N(C)C(=O)[C@H](CCCNC(=N)N)NC(=O)[C@H](Cc3ccc(-c4ccccc4)cc3)NC(=O)[C@H](C(C)C)NC2=O)c1` [Compound 1192] ({CH2CO}-NYD[Phe(3-Me)]V[Bip]R[NMeA][dL]RLVTCA-NH2; thioether N-14) stands 0.03 µM. As to `CC(C)C[C@@H]1NC(=O)[C@H](CCN)NC(=O)[C@@H](CC(C)C)NC(=O)[C@H](C)N(C)C(=O)[C@H](CCCNC(=N)N)NC(=O)[C@H](Cc2ccc(-c3ccsc3)cc2)NC(=O)[C@H](C(C)C)NC(=O)[C@H](Cc2c[nH]c3ccccc23)NC(=O)[C@H](CC(=O)O)NC(=O)[C@H](Cc2ccc(O)cc2)NC(=O)[C@H](CC(N)=O)NC(=O)CSC[C@@H](C(=O)N[C@@H](C)C(N)=O)NC(=O)[C@H]([C@@H](C)O)NC(=O)[C@H](C(C)C)NC1=O` [Compound 1224] ({CH2CO}-NYDWV[X36]R[NMeA][dL][Dab]LVTCA-NH2; thioether N-14), the 50% inhibitory concentration (IC50) worked out at 0.04 µM. Consider `CCC(C)[C@@H]1NC(=O)[C@H](Cc2ccc(-c3ccccc3)cc2)NC(=O)[C@H](CC(C)C)NC(=O)[C@H](Cc2c[nH]c3ccccc23)NC(=O)[C@H](CC(=O)O)NC(=O)[C@H](Cc2ccc(OCC(=O)O)cc2)NC(=O)[C@H](C(C)O)NC(=O)CSC[C@@H](C(=O)N[C@@H](CC(N)=O)C(=O)O)NC(=O)[C@H](CC(=O)O)NC(=O)[C@H](C(C)C)NC(=O)[C@H](CC(C)C)NC(=O)[C@H](CCN)NC(=O)[C@@H](CC(C)C)NC(=O)[C@H](C)N(C)C1=O` (stereo partly drawn) [Compound 2225] ({CH2CO}-[Thr(3ξ)]Y(Carboxymethyl)DWL[Bip][Ile(3ξ)][NMeA][dL][Dab]LVDCN-OH; thioether N-14), for which the IC50 amounted to 0.08 µM. In the case of `CCC(C)[C@@H]1NC(=O)[C@H](Cc2ccc(-c3ccccc3)cc2)NC(=O)[C@H](C(C)C)NC(=O)[C@H](Cc2c[nH]c3ccccc23)NC(=O)[C@H](CC(=O)O)NC(=O)[C@H](Cc2ccc(O)cc2)NC(=O)[C@H](CC2CCNCC2)NC(=O)CSC[C@@H](C(=O)N[C@@H](C)C(N)=O)NC(=O)[C@H](C(C)O)NC(=O)[C@H](C(C)C)NC(=O)[C@H](CC2CCCCC2)NC(=O)[C@H](CCN)NC(=O)[C@@H](CC(C)C)NC(=O)[C@H](C)N(C)C1=O` (stereo partly drawn) [Compound 2043] ({CH2CO}-[Ala(piperidin-4-yl)]YDWV[Bip][Ile(3ξ)][NMeA][dL][Dab][Cha]V[Thr(3ξ)]CA-NH2; thioether N-14), the half-inhibitory concentration (IC50) stood at 0.01 µM. The figure for `CC(C)C[C@@H]1NC(=O)[C@H](CCCNC(=N)N)NC(=O)[C@H](Cc2csc3ccccc23)NC(=O)[C@H](C)N(C)C(=O)[C@H](CCC(=O)O)NC(=O)[C@H](Cc2ccc(-c3ccccc3)cc2)NC(=O)[C@H](C(C)C)NC(=O)[C@H](Cc2c[nH]c3ccccc23)NC(=O)[C@H](CC(=O)O)NC(=O)[C@H](Cc2ccc(O)cc2)NC(=O)[C@H](Cc2ccccc2)NC(=O)CSC[C@@H](C(=O)N[C@@H](C)C(N)=O)NC(=O)[C@H]([C@@H](C)O)NC(=O)[C@H](C(C)C)NC1=O` [Compound 1133] ({CH2CO}-FYDWV[Bip]E[NMeA][Bta]RLVTCA-NH2; thioether N-14) is 0.35 µM; for `CC[C@H](C)[C@@H]1NC(=O)[C@H](Cc2ccc(-c3ccccc3)cc2)NC(=O)[C@H](C(C)C)NC(=O)[C@H](Cc2c[nH]c3ccccc23)NC(=O)[C@H](CC(=O)O)NC(=O)[C@H](Cc2cccc(C#N)c2)NC(=O)[C@H](CC(N)=O)NC(=O)CSC[C@@H](C(=O)N[C@@H](C)C(N)=O)NC(=O)[C@H]([C@@H](C)O)NC(=O)[C@H](C(C)C)NC(=O)[C@H](CC(C)C)NC(=O)[C@H](CCN)NC(=O)[C@@H](CC(C)C)NC(=O)[C@H](C)N(C)C1=O` [Compound 1397] ({CH2CO}-N[Phe(3-CN)]DWV[Bip]I[NMeA][dL][Dab]LVTCA-NH2; thioether N-14) it is 0.02 µM. Under `Cc1cccc(C[C@@H]2NC(=O)[C@H](CC(=O)O)NC(=O)[C@H](Cc3ccc(O)cc3)NC(=O)[C@H](CC(N)=O)NC(=O)CSC[C@@H](C(=O)N[C@@H](C)C(N)=O)NC(=O)[C@H]([C@@H](C)O)NC(=O)[C@H](C(C)C)NC(=O)[C@H](CC(C)C)NC(=O)[C@H](CCCNC(=N)N)NC(=O)[C@@H](CC(C)C)NC(=O)[C@H](C)N(C)C(=O)[C@H](C(C)C)NC(=O)[C@H](Cc3ccc(-c4ccccc4)cc3)NC(=O)[C@H](C(C)C)NC2=O)c1` [Compound 1273] ({CH2CO}-NYD[Phe(3-Me)]V[Bip]V[NMeA][dL]RLVTCA-NH2; thioether N-14) stands 0.01 µM; under `CC(C)C[C@@H]1NC(=O)[C@H](Cc2c[nH]c3ccccc23)NC(=O)[C@H](CC(=O)O)NC(=O)[C@H](Cc2ccc(C(=O)O)cc2)NC(=O)[C@H](Cc2ccc(OCC(=O)O)cc2)NC(=O)CSC[C@@H](C(=O)NC(CC(N)=O)C(N)=O)NC(=O)[C@H](CO)NC(=O)[C@H](C(C)C)NC(=O)[C@H](CC2CCCCC2)NC(=O)[C@H](CCN)NC(=O)[C@@H](CC(C)C)NC(=O)[C@H](C)N(C)C(=O)[C@H](C(C)C)NC(=O)[C@H](Cc2ccc(-c3ccccc3)cc2)NC1=O` (stereo partly drawn) [Compound 1912] ({CH2CO}-Y(Carboxymethyl)[Phe(4-COOH)]DWL[Bip]V[NMeA][dL][Dab][Cha]VSC[ξN]-NH2; thioether N-14), 0.02 µM. As for `CC(C)C[C@@H]1NC(=O)[C@H](CCN)NC(=O)[C@@H](CC(C)C)NC(=O)[C@H](C)N(C)C(=O)[C@H](CCCNC(N)=O)NC(=O)[C@H](Cc2ccc(-c3ccccc3)cc2)NC(=O)[C@H](C(C)C)NC(=O)[C@H](Cc2c[nH]c3ccccc23)NC(=O)[C@H](CC(=O)O)NC(=O)[C@H](Cc2ccc(O)cc2)NC(=O)[C@H](Cc2cc3ccccc3cn2)NC(=O)CSC[C@@H](C(=O)N[C@@H](C)C(N)=O)NC(=O)[C@H](C(C)O)NC(=O)[C@H](C(C)C)NC1=O` (stereo partly drawn) [Compound 2035] ({CH2CO}-[X23]YDWV[Bip][Cit][NMeA][dL][Dab]LV[Thr(3ξ)]CA-NH2; thioether N-14), the IC50 was 0.04 µM. As to `CC(C)C[C@@H]1NC(=O)[C@H](CCN)NC(=O)[C@@H](CC(C)C)NC(=O)[C@H](C)N(C)C(=O)[C@H](CCC(=O)O)NC(=O)[C@H](Cc2ccc(-c3ccccc3)cc2)NC(=O)[C@H](C(C)C)NC(=O)[C@H](Cc2c[nH]c3ccccc23)NC(=O)[C@H](CC(=O)O)NC(=O)[C@H](Cc2ccc(O)cc2)NC(=O)[C@H](Cc2ccccc2)NC(=O)CSC[C@@H](C(=O)N[C@@H](C)C(N)=O)NC(=O)[C@H]([C@@H](C)O)NC(=O)[C@H](C(C)C)NC1=O` [Compound 1134] ({CH2CO}-FYDWV[Bip]E[NMeA][dL][Dab]LVTCA-NH2; thioether N-14), the IC50 was determined as 0.11 µM.
